Experimental data published in PMC4191062, “Development of αGlcN(1↔1)αMan-Based Lipid A Mimetics as a Novel Class of Potent Toll-like Receptor 4 Agonists” (Journal of Medicinal Chemistry, 2014).

Tested on: bone marrow-derived macrophages (BMDM)
Test: TNF-α and IL-6 production in mouse bone marrow-derived macrophages (ELISA)
Format: cell-based, C57BL/6J mice
Conditions: mBMDM, 1 nM (1.8 ng/mL), 16 h
Protocol: The ability of Lipid A mimetics 1–3 to induce the production of TNF-α and IL-6 from bone marrow-derived macrophages (BMDM) in mice was subsequently examined and compared to that of synthetic E. coli Lipid A and E. coli MPLA, which are reliable positive controls due to their chemical purity and homogeneity (Figure 6). […] Likewise, 1 nM (1.8 ng/mL) of 1 or 2 triggered the release of a 3-fold higher amount of IL-6 (1500 pg/mL) compared to Lipid A (500 pg/mL).
Bone-marrow-derived microphages (BMDMs) were isolated and differentiated from the bone marrow of C57BL/6J mice. The bone marrow was flushed from femur and fibia with RPMI media. The erythrocytes were lysed with 0.88% ammonium chloride, 15 min at 37 °C. A single-cell suspension of the bone marrow cells was then seeded in cell culture flasks at a concentration of 1 × 10^6 cells/mL in RPMI supplemented with 20% FBS and 40 ng/mL recombinant M-CSF. The cell culture medium was changed on day 3. On day 6, the differentiated cells were trypsinized, counted, and seeded in 24-well plates at a concentration of 1 × 10^6 cells/mL in RPMI supplemented with 10% FBS. After 24 h, the cells were stimulated with Lipid A mimetics 1–3 and with synthetic E. coli Lipid A/MPLA (E. coli O111:B4 LPS was used as positive control) for 16 h. The nanomolar concentrations of 1–3 were calculated according to the MW of the synthetic compounds. The supernatants were then tested for cytokines using Ready-Set-Go ELISA kits (eBioscience).

`CCCCCCCCCCCCCC(=O)O[C@H](CCCCCCCCCCC)CC(=O)N[C@H]1[C@H](OC[C@H]2O[C@H](OP(=O)(O)O)[C@H](NC(=O)C[C@H](O)CCCCCCCCCCC)[C@@H](OC(=O)C[C@H](O)CCCCCCCCCCC)[C@@H]2O)O[C@H](CO)[C@@H](OP(=O)(O)O)[C@@H]1OC(=O)C[C@@H](CCCCCCCCCCC)OC(=O)CCCCCCCCCCCCC` [Lipid A] showed an IL-6 release of 500 pg/mL.
